Assay results taken from PubChem BioAssay AID2060509 (Molecular Pharmacology Branch, DTP, NCI, 2025).
Values joined by “and” are separate entries in the source; they are usually repeats but may differ in a detail not shown here. Identical values can stand only once.

System: 485176-168-R4-J1-PDC spheroids with HUVEC/MSC, viability
Assay: Anticancer human tumor 485176-168-R4-J1-PDC patient-derived pancreatic adenocarcinoma cell line growth inhibition [GQUAD]
Settings: for viability, T/C: stronger effect = lower value; active = viability on the fitted dose curve at most 10% of control; inactive = the rest
Description: DNA G-quadruplex Stabilizer Agents in Combinations in Complex Spheroids
A high-throughput screen of multi-cell type tumor spheroids was designed to identify active combinations of DNA G-quadruplex stabilizer agents and targeted small molecules. Complex spheroids include a stromal component modeled by human endothelial cells (HUVEC) and fibroblasts modeled by human mesenchymal stem cells (MSCs). The concentration ranges selected for each drug and investigational agent were based upon clinically achievable concentrations if the clinical Cmax of the agent was known.
Compounds. The drugs and investigational agents: pidnarulex (CX-5461; NSC782164), APTO-253 (NSC789042), BRACO-19 (NSC847499), peposertib (NSC802822), ceralasertib (NSC780249), elimusertib (NSC800525), camonsertib (NSC841442), AZD-1390 (NSC803789), olaparib (NSC753686), talazoparib (NSC767125), ART-558 (NSC835418), sotorasib (NSC818433), MRTX-1133 (NSC836407), SN-38 (NSC673596), topotecan (NSC609699), etoposide (NSC141540), doxorubicin (NSC123127), gemcitabine (NSC613327), 5-fluorouracil (NSC19893), paclitaxel (NSC125973), vemurafenib (NSC761431), panobinostat (NSC761190), R-306465 (JNJ-16241199; NSC773264), adavosertib (NSC754352), TP-3654 (NSC805149), carboplatin (NSC241240), KSQ-4279 (NSC840948), and staurosporine (NSC755774) were obtained from the National Cancer Institute (NCI) Developmental Therapeutics Program Chemical Repository (34). The FDA-approved anticancer drug set is available from the NCI Developmental Therapeutics Program. […] The stock solutions were prepared in dimethyl sulfoxide (DMSO, Sigma-Aldrich, St. Louis, MO, cat. D2650) at 800-fold the tested concentration and stored at -70 degrees C prior to their use. All drugs and investigational agents were tested over a range starting from a high concentration at or near the clinical Cmax and decreasing in half-log increments. If the clinical Cmax for an agent had not been determined, the highest concentration tested was 10 microM.
2.3 Cell Culture. All cells were maintained in an incubator at 37 degrees C and 5% CO2 with 95% humidity. The PDC lines were cultured according to standard operating procedures established by the NCI PDMR. All PDCs were thawed and cultured in Matrigel-coated flasks prepared with a working solution of 1X Ham's F-12 nutrient mix, without supplementation (Invitrogen, cat. 11765054), 100 U/mL penicillin-streptomycin (Invitrogen, cat. 15140122), and 2.5% Matrigel (Corning Inc., cat. 354248) for the first three passages. The 857933-349-R-J2-PDC line was cultured in 6C/Colon 1B media, which includes advanced DMEM/F-12 (Thermo Fisher Scientific, cat. 12634028), 10 mM HEPES (Thermo Fisher Scientific, cat. 15630080), 1X GlutaMAX supplement (Thermo Fisher Scientific, cat. 35050061), 0.1 mg/mL primocin (InvivoGen, cat. ant-pm-2), 10% defined fetal bovine serum, heat inactivated (HyClone Laboratories Inc., cat. SH30070.03HI), 50% L-WRN conditioned media (ATCC, cat. CRL-3276), 1.25 mM N-Acetyl-L-cysteine (Sigma-Aldrich, cat. A9165), 10 mM nicotinamide (Sigma-Aldrich, cat. N0636), 1X B-27 supplement (Thermo Fisher Scientific, cat. 17504044), 1X N-2 supplement (Thermo Fisher Scientific, cat. 17502048), 10 microM Y-27632 dihydrochloride (Tocris Bioscience, cat. 1254), and 50 ng/mL human EGF recombinant protein (Thermo Fisher Scientific, cat. PHG0311). The 485176-168-R4-J1-PDC line was cultured in Panc media, which includes all 6C/Colon 1B media components plus 100 ng/mL human FGF-10 (Thermo Fisher Scientific, cat. 100-26), 500 nM SB-431542 (Selleckchem, cat. S1067), and gastrin (Tocris, cat. 3006).
[…]

[1] = curve of first compound, second compound 0.0316 µM
[2] = curve of first compound, second compound 0.1 µM
[3] = curve of first compound, second compound 0.316 µM
[4] = curve of first compound, second compound 1 µM
[5] = curve of first compound, second compound 3.16 µM
[6] = curve of first compound, second compound 10 µM
[7] = second compound 0.0316 µM, first compound 0.0316 µM
[8] = second compound 0.0316 µM, first compound 0.316 µM
[9] = second compound 0.1 µM, first compound 0.0316 µM
[10] = second compound 0.1 µM, first compound 0.316 µM
[11] = second compound 0.316 µM, first compound 0.0316 µM
[12] = second compound 0.316 µM, first compound 0.316 µM
[13] = second compound 1 µM, first compound 0.0316 µM
[14] = second compound 1 µM, first compound 0.316 µM
[15] = second compound 3.16 µM, first compound 0.0316 µM
[16] = second compound 3.16 µM, first compound 0.316 µM
[17] = second compound 10 µM, first compound 0.0316 µM
[18] = second compound 10 µM, first compound 0.316 µM
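Note: spheroids exposed to compounds for seven days before readout.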
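Throughout, for viability, T/C: percent viability relative to DMSO vehicle control wells as 100%.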

CC1COCCN1c1cc(-c2ccnn2C)c2ccnc(-c3ccn[nH]3)c2n1 (stereo unspecified)
inactive: viability, T/C (compound 0.0316 µM) 76.2% and 71.6% and 87.6% | viability, T/C (compound 0.1 µM) 39.2% and 47.5% and 37.8% | viability, T/C (compound 0.316 µM) 18.1% and 14.2% and 15.9% | viability, T/C (compound 1 µM) 10.4% and 10.2% and 9.3%
11.9% and 12.4% and 10.7%: viability, T/C (compound 10 µM)
71.6 nM and 88.8 nM and 75.5 nM: IC50 (curve of compound)
11.3% and 9.69% and 10%: viability, T/C (compound 3.16 µM)

CCc1c2c(nc3ccc(O)cc13)-c1cc3c(c(=O)n1C2)COC(=O)[C@]3(O)CC + Cc1[nH]c2ccc(F)cc2c1-c1nc2c3cccnc3c3ncccc3c2[nH]1
inactive: viability, T/C (second compound 0.0316 µM, first compound 0.000999 µM) 76.6% | viability, T/C (second compound 0.0316 µM, first compound 0.00316 µM) 58.1% | viability, T/C (second compound 0.0316 µM, first compound 0.00999 µM) 35.2% | viability, T/C [7] 20.1% | viability, T/C (second compound 0.0316 µM, first compound 0.0999 µM) 17.6% | viability, T/C (second compound 0.1 µM, first compound 0.000999 µM) 78.8% | viability, T/C (second compound 0.1 µM, first compound 0.00316 µM) 62.2% | viability, T/C (second compound 0.1 µM, first compound 0.00999 µM) 35.6% | viability, T/C [9] 27.4% | viability, T/C (second compound 0.1 µM, first compound 0.0999 µM) 10.9% | viability, T/C (second compound 0.316 µM, first compound 0.000999 µM) 83.4% | viability, T/C (second compound 0.316 µM, first compound 0.00316 µM) 71.4% | viability, T/C (second compound 0.316 µM, first compound 0.00999 µM) 38.2% | viability, T/C [11] 22.4% | viability, T/C (second compound 0.316 µM, first compound 0.0999 µM) 15.7% | viability, T/C (second compound 1 µM, first compound 0.000999 µM) 71.4% | viability, T/C (second compound 1 µM, first compound 0.00316 µM) 60.9% | viability, T/C (second compound 1 µM, first compound 0.00999 µM) 41.6% | viability, T/C [13] 23.8% | viability, T/C (second compound 1 µM, first compound 0.0999 µM) 12.5% | viability, T/C (second compound 3.16 µM, first compound 0.000999 µM) 98.3% | viability, T/C (second compound 3.16 µM, first compound 0.00316 µM) 73.2% | viability, T/C (second compound 3.16 µM, first compound 0.00999 µM) 38.1% | viability, T/C [15] 24.4% | viability, T/C (second compound 3.16 µM, first compound 0.0999 µM) 13.3% | viability, T/C (second compound 10 µM, first compound 0.000999 µM) 76.1% | viability, T/C (second compound 10 µM, first compound 0.00316 µM) 50% | viability, T/C (second compound 10 µM, first compound 0.00999 µM) 37.8% | viability, T/C [17] 27.7% | viability, T/C (second compound 10 µM, first compound 0.0999 µM) 10.8%
7.23 nM: IC50 [5]
7.02 nM: IC50 [3]
active: viability, T/C [8] 6.23% | viability, T/C [10] 5.79% | viability, T/C [12] 3.93% | viability, T/C [14] 7.51% | viability, T/C [16] 5.95% | viability, T/C [18] 6.05%
4.64 nM: IC50 [1]
5.56 nM: IC50 [2]
4.06 nM: IC50 [6]
6.08 nM: IC50 [4]

CC(=O)O[C@H]1C(=O)[C@@]2(C)[C@H]([C@H](OC(=O)c3ccccc3)[C@]3(O)C[C@H](OC(=O)[C@H](O)[C@@H](NC(=O)c4ccccc4)c4ccccc4)C(C)=C1C3(C)C)[C@]1(OC(C)=O)CO[C@@H]1C[C@@H]2O + Cc1[nH]c2ccc(F)cc2c1-c1nc2c3cccnc3c3ncccc3c2[nH]1
< 31.6 nM: IC50 [1] | IC50 [2] | IC50 [3] | IC50 [4] | IC50 [5] | IC50 [6]
inactive: viability, T/C [7] 29.9% | viability, T/C (second compound 0.0316 µM, first compound 0.1 µM) 10.3% | viability, T/C [8] 10.7% | viability, T/C (second compound 0.0316 µM, first compound 1 µM) 10.7% | viability, T/C (second compound 0.0316 µM, first compound 3.16 µM) 10.6% | viability, T/C (second compound 0.0316 µM, first compound 10 µM) 11.5% | viability, T/C [9] 29.6% | viability, T/C (second compound 0.1 µM, first compound 0.1 µM) 13.1% | viability, T/C [10] 16% | viability, T/C (second compound 0.1 µM, first compound 1 µM) 12.4% | viability, T/C (second compound 0.1 µM, first compound 3.16 µM) 12.3% | viability, T/C (second compound 0.1 µM, first compound 10 µM) 10% | viability, T/C [11] 24.9% | viability, T/C (second compound 0.316 µM, first compound 0.1 µM) 14.4% | viability, T/C [12] 14.9% | viability, T/C (second compound 0.316 µM, first compound 1 µM) 9.44% | viability, T/C (second compound 0.316 µM, first compound 3.16 µM) 12.5% | viability, T/C (second compound 0.316 µM, first compound 10 µM) 11.7% | viability, T/C [13] 28.6% | viability, T/C (second compound 1 µM, first compound 0.1 µM) 13.2% | viability, T/C [14] 12% | viability, T/C (second compound 1 µM, first compound 1 µM) 13.2% | viability, T/C (second compound 1 µM, first compound 3.16 µM) 9.22% | viability, T/C (second compound 1 µM, first compound 10 µM) 10.8% | viability, T/C [15] 24.5% | viability, T/C (second compound 3.16 µM, first compound 0.1 µM) 12.1% | viability, T/C [16] 13.4% | viability, T/C (second compound 3.16 µM, first compound 1 µM) 12.2% | viability, T/C (second compound 3.16 µM, first compound 3.16 µM) 11.3% | viability, T/C (second compound 3.16 µM, first compound 10 µM) 11.8% | viability, T/C [17] 28% | viability, T/C (second compound 10 µM, first compound 0.1 µM) 9.49% | viability, T/C [18] 14.4% | viability, T/C (second compound 10 µM, first compound 1 µM) 14.4% | viability, T/C (second compound 10 µM, first compound 3.16 µM) 11.1% | viability, T/C (second compound 10 µM, first compound 10 µM) 12.1%
